The values that follow come from patent US20240122829A1, “HAIR COMPOSITIONS, HAIR FORMULATIONS, PROCESSES OF PRODUCTION THEREOF, USES AND METHODS OF HAIR TREATMENT” (CHEMYUNION LTDA., priority 2021, published 2024).

The experiment is described as follows: Repairing effect: maximum tension of hair fibers after 3 discoloration processes, composition applied in a leave-in base. The settings on record: synergy test, after 3 discolorations; compositions at 5% in leave-in base; FIG. 11.

Protocol: To evaluate the effectiveness of the repairing effect, tests of maximum tension were performed after 2 or 3 discoloration processes in hair samples, composed by a naïve control group (without discoloration process), a discolored control group, a group discolored with application of the Benchmark 1 composition and a group containing the compositions of the present patent application after two or three discoloration processes, the composition being applied in a leave-in base containing 1% or 5% of the composition, this composition being the Base A or Base B, while Benchmark consisted of a ready-to-use cosmetic base (Benchmark 2 or Benchmark 3).
The leave-in base comprises: 3%-5% cetostearyl alcohol 30/70; 0.8-2.5% cetyl alcohol 0.8-2.5%; 0.05%-0.1% disodium EDTA; 0.8%-2.5% CCTA cetyl trimethyl ammonium chloride; 0.25%-1% preservatives and anti-microbial agents and water q.s. […]
After the discoloration process, a standardized amount of Leave-in was applied to the strands with or without (control) 1% or 5% of the hair composition of the present patent application on damp hair, and this composition may be the Base A or Base B or the actives making up Base B, while the benchmark consisted of a ready-to-use cosmetic base (Benchmark 2 or Benchmark 3). […]

With `N=C(N)NCCC[C@H](N)C(=O)O` [arginine], the “increase in resistance in relation to the discolored strand” value is on record as 3.9%.
